What was measured:
[1] = test system: Ischemic Isolated Rat Heart; experiment: Globally ischemic isolated perfused rat heart (Langendorff), protective effect; set-up: species or system Male Sprague-Dawley rats; LDH (Lactate Dehydrogenase Release), Reperfusion (Post-Ischemic Event): unit not given here; conditions: 10 µM; for FLOW (coronary flow), Pre-ischemic Event (Post Drug) / HR (Heart Rate), Pre-ischemic Event (Post Drug) / LVDP (Left Ventricular Developed Pressure), Pre-ischemic Event (Post Drug): after 10 minutes drug treatment, n = 4; for FLOW (coronary flow), Pre-ischemic Event (Post Drug) / HR (Heart Rate), Pre-ischemic Event (Post Drug) / LVDP (Left Ventricular Developed Pressure), Pre-ischemic Event (Post Drug) / DP (Double Product), Pre-ischemic Event (Post Drug): before ischemia; for DP (Double Product), Pre-ischemic Event (Post Drug) / DP (Double Product), Reperfusion (Post-Ischemic Event): HR x LVDP divided by 1000; for DP (Double Product), Pre-ischemic Event (Post Drug): lower = more cardiodepressant; for FLOW (coronary flow), Reperfusion (Post-Ischemic Event) / HR (Heart Rate), Reperfusion (Post-Ischemic Event) / LVDP (Left Ventricular Developed Pressure), Reperfusion (Post-Ischemic Event) / DP (Double Product), Reperfusion (Post-Ischemic Event) / LDH (Lactate Dehydrogenase Release), Reperfusion (Post-Ischemic Event): occlusion 25 minutes, reperfusion 30 minutes; for DP (Double Product), Reperfusion (Post-Ischemic Event): higher = more cardioprotective; for LDH (Lactate Dehydrogenase Release), Reperfusion (Post-Ischemic Event): lower = greater cardioprotection
From the text: Grover et al., "Dissociation of Cardiodepression from Cardioprotection with Calcium Antagonists: Diltiazem Protects Ischemic Rat Myocardium with a Lower Functional Cost as Compared with Verapamil and Nifedipine", Journal of Cardiovascular Pharmacology; pages 331-340, Vol. 14, No. 2 (1989), describe a model for testing globally ischemic, isolated rat hearts. This model is expected to be a reliable indicator of protection since the laboratory-induced isolation and ischemic event including perfusion with a cardioplegic solution, reasonably duplicates the environment and conditions for the heart during and after a shock or trauma episode. Grover et al. express the efficacy of protective agents as the amount of lactate dehydrogenase (LDH) release and post-ischemic cardiac function. Lactate dehydrogenase is an enzyme released in the heart during an ischemic event and is an index of cardiac cell necrosis. In the Grover et al. model, this is measured during reperfusion and an agent which provides for lower release levels of LDH is considered to offer greater cardioprotection since lower LDH indicates a smaller infarct size. Cardiac function is determined using the double product (DP) of heart rate times the left ventricular developed pressure (LVDP) divided by 1,000.
The lower the value for DP before the ischemic isolation of the heart for a given agent, the more cardiodepressant it is considered to be and the higher the value of DP is during reperfusion, the more cardioprotective the agent is.
Male Sprague-Dawley rats (450-550 g) were used in all experiments. The rats were anesthetized using 30 mg/kg sodium pentobarbital (i.p.). They were intubated and then treated with i.v. heparin (1000 U/kg). While being mechanically ventilated, their hearts were perfused in situ via retrograde cannulation of the aorta. The hearts were then excised and quickly moved to a Langendorff apparatus where they were perfused with Krebs-Henseleit bicarbonate buffer (112 mM […], 25 mM NaHCO₃, 5 mM KCl, 1.2 mM MgSO₄, 1 mM KH₂PO₄, 1.25 mM CaCl₂, 11.5 mM dextrose, and 2 mM pyruvate bubbled with 95% O₂ - 5% CO₂) at a constant pressure (75 mm Hg). A water filled latex balloon attached to a metal cannula was then inserted into the left ventricle and connected to a Statham pressure transducer for measurement of left ventricular pressure. The hearts were allowed to equilibrate for 15 minutes at which time end diastolic pressure (EDP) was adjusted to 5 mm Hg and this was maintained for 5 minutes. Pre-ischemia or pre-drug function, heart rate and coronary flow (extracorporeal electromagnetic flow probe, Carolina Medical Electronics, King, N.C.) were then measured. Cardiac function was determined using the double product of heart rate (HR) X left ventricular developed pressure (LVDP) divided by 1000. Cardiac temperature was maintained throughout the experiment by submerging the hearts in 37°C buffer which was allowed to accumulate in a stoppered, heated chamber.
Once the baseline measurements were taken, the hearts were treated with 10 µM cromakalim, compounds C', C'', E', E'', F', F'' (n = 4 each) or with vehicle buffer (0.01% DMSO, n = 7). All of these hearts were treated with their respective drugs or vehicle for ten minutes. At this time, post-drug cardiac function and flow were measured and then the hearts were made globally ischemic by shutting off the buffer perfusion. The ischemia was maintained for 25 minutes, the hearts were then reperfused with nondrug treated buffer. Reperfusion was maintained for a total of 30 minutes and at this time reperfusion function and flow were again determined.

[2] = test system: rat aorta; experiment: Inhibition of agonist-induced constriction in rat aorta (vasodilation, non-ischemic tissue); conditions: concentration inhibiting agonist-induced constriction by 50 percent, normal
From the text: Also included in the TABLE are the IC₅₀(m) values for rat aorta. The IC₅₀ (rat aorta) value is the concentration of the particular compound which inhibits agonist-induced constriction in rat aorta by 50 percent. Thus, the lower values indicate greater vasodilation and it should be noted that these values are for normal, i.e., non-ischemic, tissue. It can be seen that cromakalim with an IC₅₀ of 5.7 x 10⁻⁸ m is a relatively potent vasodilator in non-ischemic tissue.

SMILES	FLOW (coronary flow), Pre-ischemic Event (Post Drug) [1]	HR (Heart Rate), Pre-ischemic Event (Post Drug) [1] [beats/min]	LVDP (Left Ventricular Developed Pressure), Pre-ischemic Event (Post Drug) [1] [mmHg]	DP (Double Product), Pre-ischemic Event (Post Drug) [1]	FLOW (coronary flow), Reperfusion (Post-Ischemic Event) [1]	HR (Heart Rate), Reperfusion (Post-Ischemic Event) [1] [beats/min]	LVDP (Left Ventricular Developed Pressure), Reperfusion (Post-Ischemic Event) [1] [mmHg]	DP (Double Product), Reperfusion (Post-Ischemic Event) [1]	LDH (Lactate Dehydrogenase Release), Reperfusion (Post-Ischemic Event) [1]	IC50 [2] [nM]	also measured
CC1(C)Oc2ccc(C#N)cc2[C@@H](NC(=NC#N)Nc2ccccc2)[C@@H]1O [C'"]	15.2	244	134	32.7	13.2	244	74	18.2	10.41	1370	FLOW (coronary flow), Pre-ischemic Event (Post Drug) ([1]; listed as C"): 20.4; HR (Heart Rate), Pre-ischemic Event (Post Drug) ([1]; listed as C"): 250 beats/min; LVDP (Left Ventricular Developed Pressure), Pre-ischemic Event (Post Drug) ([1]; listed as C"): 121 mmHg; DP (Double Product), Pre-ischemic Event (Post Drug) ([1]; listed as C"): 29.8; DP (Double Product), Reperfusion (Post-Ischemic Event) ([1]; listed as C"): 14.8; FLOW (coronary flow), Reperfusion (Post-Ischemic Event) ([1]; listed as C"): 10.1; HR (Heart Rate), Reperfusion (Post-Ischemic Event) ([1]; listed as C"): 240 beats/min; LVDP (Left Ventricular Developed Pressure), Reperfusion (Post-Ischemic Event) ([1]; listed as C"): 62 mmHg; LDH (Lactate Dehydrogenase Release), Reperfusion (Post-Ischemic Event) ([1]; listed as C"): 9.88; IC50 ([2]; listed as C"): 447 nM
CC1(C)Oc2ccc(C#N)cc2C(N2CCCC2=O)C1O (stereo not shown) [Cromakalim, cromakalim, reference compound]	23.9	250	131	33.0	13.9	234	87	20.5	8.89	–	IC50 ([2]; Rattus norvegicus): 57 nM
CC1(C)Oc2ccc(C#N)cc2[C@@H](NC(=S)Nc2ccccc2)[C@@H]1O [E']	15.3	236	141	32.75	13.4	229	55	14.83	13.46	1710	FLOW (coronary flow), Pre-ischemic Event (Post Drug) ([1]; listed as E"): 24.8; HR (Heart Rate), Pre-ischemic Event (Post Drug) ([1]; listed as E"): 234 beats/min; LVDP (Left Ventricular Developed Pressure), Pre-ischemic Event (Post Drug) ([1]; listed as E"): 128 mmHg; DP (Double Product), Pre-ischemic Event (Post Drug) ([1]; listed as E"): 30.06; DP (Double Product), Reperfusion (Post-Ischemic Event) ([1]; listed as E"): 18.52; FLOW (coronary flow), Reperfusion (Post-Ischemic Event) ([1]; listed as E"): 17.56; HR (Heart Rate), Reperfusion (Post-Ischemic Event) ([1]; listed as E"): 230 beats/min; LVDP (Left Ventricular Developed Pressure), Reperfusion (Post-Ischemic Event) ([1]; listed as E"): 81 mmHg; LDH (Lactate Dehydrogenase Release), Reperfusion (Post-Ischemic Event) ([1]; listed as E"): 8.77; IC50 ([2]; listed as E"): 805 nM
CC1(C)Oc2ccc(C#N)cc2[C@@H](NC(=NC#N)Oc2ccccc2)[C@@H]1O [F']	16.0	238	128	30.5	10.4	212	28	6.2	21.7	> 100000	FLOW (coronary flow), Pre-ischemic Event (Post Drug) ([1]; listed as F"): 28.3; HR (Heart Rate), Pre-ischemic Event (Post Drug) ([1]; listed as F"): 239 beats/min; LVDP (Left Ventricular Developed Pressure), Pre-ischemic Event (Post Drug) ([1]; listed as F"): 159 mmHg; DP (Double Product), Pre-ischemic Event (Post Drug) ([1]; listed as F"): 38.02; DP (Double Product), Reperfusion (Post-Ischemic Event) ([1]; listed as F"): 14.72; FLOW (coronary flow), Reperfusion (Post-Ischemic Event) ([1]; listed as F"): 13.92; HR (Heart Rate), Reperfusion (Post-Ischemic Event) ([1]; listed as F"): 247 beats/min; LVDP (Left Ventricular Developed Pressure), Reperfusion (Post-Ischemic Event) ([1]; listed as F"): 59 mmHg; LDH (Lactate Dehydrogenase Release), Reperfusion (Post-Ischemic Event) ([1]; listed as F"): 10.65; IC50 ([2]; listed as F"): 4900 nM

Reference: patent EP0489404A2, “Method of treating shock using a potassium channel activator” (E.R. SQUIBB & SONS, INC., priority 1990, dated 1992)
